# Columns and labels:
# [1] = target: T1, PPARγ (Homo sapiens, UniProt P37231); test: PPARγ reporter (AOx)3-TK-Luc transient transfection luciferase assay in RAW 267.4 cells; type: cell-based; conditions: for PPRE-driven reporter gene expression / PPARγ transactivation: varying concentrations, with recombinant PPARγ
# T1 construct: expressed in transfected cells; host or cells: RAW 267.4 mouse macrophages
# T1 sequence (P37231 1-505): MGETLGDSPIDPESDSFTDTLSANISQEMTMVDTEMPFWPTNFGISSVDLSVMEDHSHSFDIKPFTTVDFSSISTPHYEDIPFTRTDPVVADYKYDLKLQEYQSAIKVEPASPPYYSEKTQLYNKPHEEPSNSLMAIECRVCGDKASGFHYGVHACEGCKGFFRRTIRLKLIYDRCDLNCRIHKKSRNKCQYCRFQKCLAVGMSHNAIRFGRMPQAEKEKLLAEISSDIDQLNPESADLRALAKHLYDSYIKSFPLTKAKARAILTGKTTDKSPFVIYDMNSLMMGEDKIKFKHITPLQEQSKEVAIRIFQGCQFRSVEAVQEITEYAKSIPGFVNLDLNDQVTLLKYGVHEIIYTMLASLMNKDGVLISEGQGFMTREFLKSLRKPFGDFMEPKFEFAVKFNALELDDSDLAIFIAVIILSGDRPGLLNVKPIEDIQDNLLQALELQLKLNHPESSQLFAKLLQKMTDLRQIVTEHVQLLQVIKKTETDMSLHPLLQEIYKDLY
# Procedure: […] cells were maintained at 37° C. and 5% CO2 in Dulbecco's modified eagle medium (DMEM) with high glucose (obtained from GIBCO; Grand Island, N.Y.) supplemented with 10% fetal bovine serum (FBS), 100 μg/ml penicillin and 100 μg/ml streptomycin.
# For transfection, cells were grown in DMEM with 10% FBS for at least 24 hours prior to transfection. Transient transfections were performed in 12-well plates for at least 24 hours prior to transfection. At approximately 50% confluence, cells were transfected using the FuGENE transfection reagent (obtained from Roche Diagnostics GmbH; Mannheim, Germany) according to the manufacturer's instruction with 0.5 μg of reporter plasmid (AOx)3-TK-Luc, 0.1 to 0.2 μg of control plasmid pCMXμgal, 0.1 μg PPARγ expression plasmid and carrier DNA for a total of 1 μg DNA per well. After 16 hours, the cells were washed and fresh medium containing the appropriate amount of drugs, prepared in 0.5% DMSO, was added to the cells for another 24 hours. The cells were treated with either vehicle alone (DMSO), indomethacin, rosiglitazone or varying concentrations of R- or S-etodolac.
# For luciferase assays, cells were lysed in potassium phosphate buffer containing 1% TRITON X-100 (obtained from Rohm and Haas Co.; Philadelphia, Pa.) and light emission was detected in the presence of luciferin using a microtiter plate luminometer. Luciferase values were normalized for variations in transfection efficiency using a β-galactosidase internal control. The results are expressed as relative luciferase units (RLU). The luciferase activity values represent the mean of a minimum of three independent transfections performed in triplicate.
# The 22Rv1 cells were seeded into 100 mm dishes and allowed to attach for a period of 18 hours. The media was then replaced with phenol red-free and serum-free RPMI 1640, with 100 μg/ml penicillin and 100 μg/ml streptomycin ±R-etodolac for the indicated times. MAP-kinase activation was assessed by Western blot analysis using methods described above. LNCaP cells were treated with R-etodolac at 200, 400, and 600 μM concentrations for 18 Hours. Total protein or RNA was isolated using methods as described previously. Cyclin D1 protein and mRNA expression were assessed by western blot and a real-time quantitative RT-PCR assay as previously described. This transactivation function is mediated only in the presence of recombinant PPARγ.
# [2] = system: PPARγ1; test: PPARγ protein (Western blot) and mRNA (RT-PCR) in treated prostate cancer xenografts; type: in vivo, nude mice; conditions: for PPARγ protein by immunoblot in xenograft lysates of combination study: 22 days of treatment
# Procedure: (§1) Total RNA was extracted from prostate tumors or the LNCaP cell line using the TRIZOL reagent (obtained from Invitrogen Corp.; San Diego, Calif.). Samples were heated at 95° C. for 3 minutes and snap-cooled before proceeding with DNase I treatment to prevent RNA/DNA hybridization. DNase I (obtained from Ambion; Austin, Tex.) was used to remove any genomic DNA that might interfere with the reaction. Samples were treated with DNase I for 1 hour at 37° C. The RNA yield was quantified spectrometrically.
# Total RNA was reverse-transcribed (RT) into cDNA and polymerase chain reaction (PCR) was performed in the same reaction using a real-time TAQman One-Step RT-PCR Master Mix Reagents Kit (obtained from Applied Biosystems; Foster City, Calif.). The sequences of the primer/probe sets used for this analysis are as follows. F and R are the forward and reverse primers, respectively, and P is the fluorescent-labeled probe.
# The real-time one step RT-PCR cycling conditions for all primer sets were as follows: 30 min at 48° C. for RT step; 10 min at 95° C. for […] Gold Activation; and 40 cycles for cDNA denaturing (95° C., 15 s), and annealing/elongation (60° C. for 1 min) steps. PCR reactions for each template were done in triplicate using 1 μg of total RNA per sample. Each gene-specific primer pair was tested on standard 384-well plates. Standard curves were constructed using 10-1000 ng of total RNA prepared from the CWRSA6 tumor line.
# The comparative CT method (Perkin Elmer Applied Biosystems; Foster City, Calif.) was used to determine relative quantification of gene expression for each gene compared with the β-actin control. First, the CT values from the β-actin reactions were averaged for each triplicate. Next, the CT values from the gene-of-interest reactions were averaged. The gene-of-interest average was […] the β-actin average to take into account the variability of total RNA.
# (§2) Immunoblots were performed as described in Towbin H., “Electrophoretic Transfer of Proteins from Polyacrylamide Gels to Nitrocellulose Sheets: Procedure and Some Applications,” Proc. Natl. Acad. Sci. USA, Vol. 76, No. 9 p. 4350-4354 (1979) using aliquots of tumor lysates (100 μg per lane) or lysates from LNCaP cells (100 μg per lane). Protein concentration was determined with a Bradford Assay (obtained from Bio-Rad Inc.; Hercules, Calif.). The lysates were separated on 10% SDS polyacrylamide gels and transferred onto nitrocellulose filters. […]
# [3] = Toxicity and weight loss in xenograft-bearing treated animals; type: in vivo, nude mice; conditions: for Lethal toxicity or significant weight loss: combination study, CWRSA6, R-etodolac 200 mg/kg daily, 2C4 20 mg/kg 2X/wk, three weeks
# [4] = system: CWRSA6 human prostate cancer xenografts; conditions: 200 mg/kg o.g. daily; p=0.002
# [5] = system: HER-kinase receptors; test: HER-kinase receptor mRNA expression in treated xenografts (RT-PCR); type: in vivo, nude mice; conditions: data not shown
# Procedure: as §1, with “spectrometrically. […]” for “spectrometrically.”
# (§3) The mRNA expression of cyclin D1 (Takayasu, H. et al., “Frequent deletions and mutations of the beta-catenin gene are associated with overexpression of cyclin D1 and fibronectin and poorly differentiated histology in childhood hepatoblastoma,” Clin. Cancer Res., Vol. 7, p. 901-908 (2001)) and the HER-kinase receptors were analyzed using primer sets as described in Agus, D. B. et al, “Targeting ligand activated ErbB2 signaling inhibits breast and prostate tumor growth,” Cancer Cell, Vol. 2, p. […]
# (§4) The comparative CT method (Perkin Elmer Applied Biosystems; Foster City, Calif.) was used to determine relative quantification of gene expression for each gene compared with the β-actin control. […]
# [6] = system: phospho-MAP kinase in 22Rv1 cells; test: Phospho-MAP kinase activation Western blot in 22Rv1 prostate cancer cells; type: cell-based, human; conditions: 500 μM, within 20 minutes of addition, then sustained
# Procedure: as §2
# The 22Rv1 cells were seeded into 100 mm dishes and allowed to attach for a period of 18 hours. […] MAP-kinase activation was assessed by Western blot analysis using methods described above. […] Cyclin D1 protein and mRNA expression were assessed by western blot and a real-time quantitative RT-PCR assay as previously described. […]
# [7] = system: CD36 expression in THP-1 cells; test: TPA-induced CD36 scavenger receptor expression in THP-1 cells by flow cytometry; type: cell-based, human; conditions: 200 μM, TPA 40 ng/ml
# Procedure: Prostate carcinoma cell lines, 22Rv1 and LNCaP, and human acute monocytic leukemia (THP-1) cells were obtained from the American Type Culture Collection (Rockville, Md.) and maintained in RPMI 1640 medium supplemented with 10% FBS, 100 μg/ml penicillin and 100 μg/ml streptomycin (obtained from GIBCO; Grand Island, N.Y.). […] Second, the combination of PPARγ transactivation, together with protein kinase C activation by a phorbol ester, has been reported to induce the scavenger receptor CD36 in macrophages (Han and […], 2002). CD36 is documented as a PPARγ-regulated gene (Tontonoz et al., 1998). […] THP-1 cells were treated for 5 days with 200 μM etodolac (racemic mixture) and 20 μM troglitazone in the presence or absence of 40 ng/ml phorbol ester (TPA) for 48 hours. Cells were fixed and stained with unconjugated anti-CD36 and FITC conjugated anti-IgG and analyzed by flow cytometry. A population of 10,000 viable cells was analyzed for each treatment.
# [8] = system: LuCaP-35 human prostate cancer xenografts; test: Tumor growth of androgen-dependent LuCaP-35 prostate cancer xenografts in nude mice; type: in vivo; conditions: 200 mg/kg o.g. daily; p=0.0103
# [9] = system: cyclooxygenase (COX); conditions: literature (Adachi et al.; Demerson et al.); cited from earlier work
# [10] = system: NIH3T3-PPARγ cells; test: Neutral lipid accumulation (Oil Red O) in NIH3T3 cells expressing recombinant PPARγ; type: cell-based, mouse
# Procedure: Third, PPARγ is accepted as a master regulator of adipocyte differentiation. […] NIH3T3 cells that stably overexpress retrovirally expressed recombinant PPARγ were obtained from Dr. Ronald Evans (Salk Institute, La Jolla, Calif.). […] NIH3T3 cells stably expressing recombinant PPARγ (obtained from Dr. Ronald Evans of the Jonas Salk Institute; San Diego, Calif.) were maintained in DMEM supplemented with 10% BCS, 100 μg/ml penicillin and 100 μg/ml streptomycin (obtained from GIBCO; Grand Island, N.Y.). The cells were treated for seven days with the indicated compounds and concentrations and stained for neutral lipids with Oil Red O as described by Green and Kehinde (“Sublines of mouse 3T3 cells that accumulate lipid,” Cell, Vol. 1, p. 113-116 (1974)).
# [11] = system: cyclin D1 expression in LNCaP cells; test: Cyclin D1 mRNA (RT-PCR) and protein (Western blot) expression in LNCaP cells; type: cell-based, human
# Procedure: as §1, with “spectrometrically. […]” for “spectrometrically.”
# as §3, §4
# The 22Rv1 cells were seeded into 100 mm dishes and allowed to attach for a period of 18 hours. […] MAP-kinase activation was assessed by Western blot analysis using methods described above. […]
# [12] = system: phospho-p44/42 MAP kinase; test: Phospho-MAP kinase (p44/42) Western blot in CWRSA6 xenografts, time course; type: in vivo, nude mice
# Procedure: Immunoblots were performed as described in Towbin H., “Electrophoretic Transfer of Proteins from Polyacrylamide Gels to Nitrocellulose Sheets: Procedure and Some Applications,” Proc. Natl. Acad. Sci. USA, Vol. 76, No. 9 p. 4350-4354 (1979) using aliquots of tumor lysates (100 μg per lane) or lysates from LNCaP cells (100 μg per lane). Protein concentration was determined with a Bradford Assay (obtained from Bio-Rad Inc.; Hercules, Calif.). The lysates were separated on 10% SDS polyacrylamide gels and transferred onto nitrocellulose filters. The membranes were incubated overnight at 4° C. with antibodies against PPARγ (Sc-7273 obtained from Santa Cruz Inc.; Santa Cruz, Calif.), ERK1 (Sc-94 obtained from Santa Cruz Inc.; Santa Cruz, Calif.), and phospho-p44/42 MAP kinase (9101S obtained from Cell Signal; Beverly, Mass.), and cyclin D1 (554180 obtained from BD Pharmingen; San Diego, Calif.) in parallel with anti-β-actin antibodies (A2066 obtained from Sigma; St. Louis, Mo.) and washed well before incubating with the appropriate α-mouse or α-rabbit secondary antibody conjugated with horseradish peroxidase (obtained from Amersham Biosciences, UK).
compound,measurement,setting,value
COc1ccc2c(c1)c(CC(=O)O)c(C)n2C(=O)c1ccc(Cl)cc1 [indomethacin],PPARγ transactivation compared with 100 μM R-etodolac,[1]; 10 μM,comparable
2C4: Recombinant humanized HER-2 specific monoclonal antibody that inhibits ligand-induced heterodimerization of ErbB2,PPARγ protein by immunoblot in xenograft lysates of combination study,[2]; CWRSA6 xenografts,expressed PPARγ
same,Lethal toxicity or significant weight loss,[3],no lethal toxicity or significant weight loss
CCc1cccc2c3c([nH]c12)[C@@](CC)(CC(=O)O)OCC3 [R-etodolac],Tumor growth inhibition relative to control-treated animals,[4],66%
same,Transactivation of PPARγ reporter (fold-induction of luciferase expression),"[1]; 100 μM, relative to no drug control, 24 hours",13 fold
same,PPRE-driven reporter gene expression / PPARγ transactivation,[1],enhances reporter gene expression in a dose dependent manner
same,PPARγ protein in tumors vs vehicle treated control,"[2]; CWRSA6 and LuCaP-35 xenografts, two to three weeks of treatment, 200 mg/kg",completely eliminated
same,PPARγ receptor level in time course experiment,"[2]; CWRSA6 xenografts, 24 to 72 hours post treatment",upregulation of the PPARγ receptor in the majority of the animals
same,PPARγ protein by immunoblot in xenograft lysates of combination study,[2]; CWRSA6 xenografts,complete ablation
same,mRNA expression of the HER-kinase receptors,[5],did not alter
same,Phospho-MAP kinase activation,[6],transient peak
same,CD36 expression as downstream indicator of PPARγ activation,[7],equivalent potency
same,Tumor growth inhibition relative to control-treated animals,[8],46%
same,COX inhibitory activity,[9],lacks COX inhibitory activity
same,Accumulation of neutral lipids and morphological changes (Oil Red O),"[10]; 1 μM, seven days",displayed accumulation of neutral lipids
same,Lipid uptake (Oil Red O),"[10]; 500 μM, seven days",significantly more pronounced
same,Lipid uptake in NIH3T3 cells transfected with the empty retroviral vector,"[10]; empty vector control cells, data not shown",did not demonstrate the lipid uptake
same,Cyclin D1 protein expression,"[11]; 18 hours, 200, 400 and 600 μM",downregulation
same,Cyclin D1 mRNA expression,"[11]; 18 hours, 200 and 400 μM",downregulation
same,Lethal toxicity or weight loss (greater than 10% body weight),"[3]; 200 mg/kg o.g. daily, single agent study",no lethal toxicity or weight loss
same,Lethal toxicity or significant weight loss,[3],no lethal toxicity or significant weight loss
same,Phosphorylated p44/42 levels,"[12]; 24 hours post treatment, 200 mg/kg",sharp increase
same,Total MAP kinase expression,[12]; time course,No difference
same,"MAP kinase activation, rest of time course",[12]; up to 72 hours,low level of sustained activation
CCc1cccc2c3c([nH]c12)[C@](CC)(CC(=O)O)OCC3 [S-etodolac],PPRE-driven reporter gene expression / PPARγ transactivation,[1],can also transactivate PPARγ but to significantly lower levels

# From patent US20070104714A1, “Composition and method for the treatment of cancer and other physiologic conditins based on modulation of the ppar-gamma pathway and her-kinase axis” (CEDARS-SINAI MEDICAL CENTER, priority 2003, published 2007)
